Assay results: patent publication US20020086835A1, “Use of adenosine deaminase inhibitors to treat systemic inflammatory response syndrome” (priority 2000, published 2002)
Where “and” joins values, the source holds several entries; their conditions need not be identical. Equal entries are not always repeated.

How the values were obtained:
[1] = human blood; cited from earlier work
TNF-α [2] = test: Serum TNF-α by ELISA in rats with chronic peritoneal sepsis (200 mg/kg cecal slurry ip); type: in vivo, rat; conditions: septic rats; for Effect on serum TNF-α response to sepsis at 4 hours / Effect on serum TNF-α response to sepsis at 24 hours: versus saline-treated septic group
Experimental: (§1) Studies were conducted to determine if manipulation of adenosine-mediated events would result in alterations in the TNF-α response in this model. At the time of sepsis induction, rats were treated in one of four ways. One group received only 0.9% normal saline as a vehicle control (No Rx; n=6). […] The third group received the adenosine deaminase inhibitor, erythro-9-(2-hydroxy-3-nonyl)adenine (EHNA; 1 μmole/kg+1 μmole/kg/hr; iv; n=3). A fourth group received the adenosine receptor antagonist 8-sulfophenyltheophylline (SPT; 400 μg/kg/8 hours; n=5).
(§2) Sepsis was induced under pentobarbital anesthesia (50 mg/kg) in each rat by intraperitoneal (ip) injection of 200 mg/kg rat cecal contents mixed as a slurry in 5% dextrose in water (D5W). […] Non-septic controls received an equivalent volume ip injection of D5W. Polyethylene catheters (Intramedic PE-50, Baxter) were inserted into the right internal jugular vein and right carotid artery. The jugular catheter was used for venous access (drug infusions; volume replacement, etc). The carotid catheter was used to obtain arterial blood samples, and to monitor arterial blood pressure and heart rate. The catheters were secured in their respective vessels, tunneled subcutaneously to exit in the interscapular region, and filled with heparinized saline (50 units/ml 0.9% normal saline). Incisions were closed in layers using 3-0 silk. Rats were allowed to recover from anesthetic and provided food and water ad libitum,
Serum and tissue tumor necrosis factor-α (TNF-α) concentrations were determined by enzyme-linked immunosorbant assay. Samples of serum, liver, and spleen were collected, rapidly weighed, and frozen in liquid nitrogen. On the day of assay, tissues are added to labeled tubes containing lysis buffer (volume=10 ml/gram wt. with 1:10 dilution) and kept on ice. The lysis buffer is 20 mM Tris (pH 7.4) containing […] phenylmethylsulfonylflouride (PMSF), […] leupeptin, 0.7 g/ml pepstatin, and 2.0 g/ml aprotinin to inhibit proteases. Samples were immediately homogenized using five 3 see bursts, washing grinding pistol (3×) between samples with phosphate buffered saline. Samples are then centrifuged for 20 min at 2200 RPM, 4° C. The supernatant was removed and used for TNF-α measurements. Briefly, each microplate well contained 50 μl of assay diluent. To each well, 50 μl of standard, control, or serum/homogenate supernatant sample were added and mixed on an orbital plate shaker. Plates were incubated at room temperature for 2 hours. Each well was then aspirated and washed with wash buffer 4 times. After final aspiration of wash buffer, 100 μl of rat TNF-α conjugate was added to each well. Wells were then covered and incubated for 2 hours at room temperature. At the end of the incubation, the aspiration/wash procedure was repeated 4 times, after which 100 μl of stabilized chromogen solution was added to each well. Next, plates were incubated for 45 minutes at room temperature in a dark area. After this final incubation period, 100 μl stopping solution was added to each well. Optical density of each well at […] was determined within 30 minutes using a Biotek Instruments EL312e microtiter plate reader. Concentrations of TNF-α were calculated from the standard curves.
At the time of sepsis induction, rats were treated in one of three ways. One group received only 0.9% normal saline as a vehicle control (VEH, n=6, where n is the number of rats). […] A third group received the adenosine receptor antagonist, 8-sulfophenyltheo-phylline (SPT; 400 μg/kg/8 h; n=5). Serum TNF-α (pg/ml) was determined at 4 and 24 hours after sepsis induction by ELISA.
Male SD rats (350-400 g) were made septic by IP introduction of a 200 mg/kg cecal slurry. […] TNF-α (pg/ml) was determined at 4 and 24 hours after sepsis induction by ELISA.

adenosine deaminase [3] = target: T1, adenosine deaminase (Homo sapiens, UniProt P00813); conditions: potency of inhibition of the enzyme
T1 sequence (P00813 1-363): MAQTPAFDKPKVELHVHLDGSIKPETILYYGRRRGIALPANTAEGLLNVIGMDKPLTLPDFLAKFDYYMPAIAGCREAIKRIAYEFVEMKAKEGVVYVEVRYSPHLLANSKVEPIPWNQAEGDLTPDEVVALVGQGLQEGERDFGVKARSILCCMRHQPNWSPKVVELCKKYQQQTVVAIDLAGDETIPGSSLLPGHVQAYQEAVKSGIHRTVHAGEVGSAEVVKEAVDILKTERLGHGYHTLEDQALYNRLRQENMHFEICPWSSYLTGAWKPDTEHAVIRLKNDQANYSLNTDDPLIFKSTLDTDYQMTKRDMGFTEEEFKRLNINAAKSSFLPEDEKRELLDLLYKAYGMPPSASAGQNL

adenosine deaminase [4] = target: T1, adenosine deaminase; conditions: read-out: Inhibitory constant for adenosine deaminase; cited from earlier work
adenosine deaminase [5] = conditions: in perfusion medium, in the presence of 5′-amino-5′-deoxyadenosine; cited from earlier work
TNF-α, IL-1 beta, IL-10 = test: Cytokine concentrations after ip E coli endotoxin (LPS), pentostatin dose response (FIG. 16); type: in vivo, rat; conditions: response to 2 mg/kg LPS (endotoxin), 2 hours after ip injection
From the text: Lower doses than this were unable to consistently suppress TNF-α and IL-1 beta with concommittant stimulation of the anti-inflammatory cytokine, IL-10.

IL-10 = IL-10 in serum, liver and spleen in fluid-resuscitated SIRS; type: in vivo, rat; conditions: pentostatin treatment
Experimental: (§3) SIRS was induced secondary to sepsis by ip introduction of […] cecal matter in 5 ml/kg D5W.
(§4) It is increasingly apparent that feedback between pro and anti-inflammatory processes is critically important to the clinical outcome from SIRS, as taught by Bone (Bone, 1996). The balance between complementary pro-and anti-inflammatory molecules is typified by TNF α and its soluble receptors, sTNF types I and II. The ability of ADA inhibition to restore balance to these complimentary molecules in the SIRS responses was tested with a more clinically relevant addition of fluid resuscitated sepsis. […] Further evidence of a complex, modulatory mode of action is indicated by IL-10 concentrations in the liver and spleen.

sTNFRI or p55 = test: Circulating soluble TNF receptor I in fluid-resuscitated sepsis-induced SIRS; type: in vivo, rat; conditions: 24 hours after SIRS induction; 1 mg/kg pentostatin 2 hours after induction
Experimental: as §3, §4

sTNFRII or p75 = test: Circulating soluble TNF receptor II in fluid-resuscitated sepsis-induced SIRS; type: in vivo, rat; conditions: 24 hours after SIRS induction; 1 mg/kg pentostatin 2 hours after induction
Experimental: as §3, §4

septic rats [6] = test: Blood pressure and heart rate in septic rats; conditions: chronic treatment
Experimental: as §1
as §2, with “The catheters were secured in their respective vessels, tunneled subcutaneously to exit in the interscapular region, and filled with heparinized saline (50 units/ml 0.9% normal saline). Incisions were closed in layers using 3-0 silk. Rats were allowed to recover from anesthetic and provided food and water ad libitum,” left out
(§5) At the time of sepsis induction, rats were treated in one of three ways. […] Serum TNF-α (pg/ml) was determined at 4 and 24 hours after sepsis induction by ELISA.

septic rats [7] = test: Capillary leakage: examination of peritoneal cavity and bowel of septic rats; type: in vivo, rat
IL-6 = test: Serum IL-6 in fluid-resuscitated sepsis-induced SIRS; type: in vivo, rat; conditions: 24 hours after SIRS induction, 1 mg/kg pentostatin 2 hours after induction
Experimental: as §3, §4

[8] = test system: lipid peroxidation (TBARS); test: Thiobarbituric acid reactive substances (TBARS) in jejunum of septic rats; conditions: 24 hours, versus saline (No Rx)
septic rats [9] = test: Survival of septic rats to day 3; type: in vivo, rat; conditions: pentostatin 5 mg/kg/12 h; 8-SPT 400 μg/kg/8 h; 3 days post-sepsis
Experimental: as §1
as §2, with “The catheters were secured in their respective vessels, tunneled subcutaneously to exit in the interscapular region, and filled with heparinized saline (50 units/ml 0.9% normal saline). Incisions were closed in layers using 3-0 silk. Rats were allowed to recover from anesthetic and provided food and water ad libitum,” left out
as §5

SIRS rats = test: Survival up to 6 days after SIRS induction secondary to sepsis (FIG. 15); type: in vivo, rat; conditions: 1 mg/kg
Experimental: All rats received 50 ml/kg 0.9% normal saline iv 2 hours after SIRS induction.
Inhibition of up to 100% can be maintained for no more than 3 consecutive days, after which ADA activity should be allowed to return to at least 50% of baseline values before another dose of the inhibitor can be given. […] One-two hours after administration of a starting dose of the inhibitor, adenosine deaminase activity can be measured in various bodily fluids, tissues, dialysates, or cells by spectrophotometric methods according to the method of Vielh and Castellazzi, or other appropriate measurement that provides information regarding ADA enzyme activity. Measurement of adenosine deaminase activity can also be used to monitor the return of ADA activity after therapeutic inhibition for the treatment or prevention of SIRS.

TNF-α [10] = test: Serum TNF-α in fluid-resuscitated sepsis-induced SIRS; type: in vivo, rat; conditions: 24 hours after SIRS induction, 1 mg/kg pentostatin 2 hours after induction
Experimental: as §3, §4
Serum and tissue tumor necrosis factor-α (TNF-α) concentrations were determined by enzyme-linked immunosorbant assay. Samples of serum, liver, and spleen were collected, rapidly weighed, and frozen in liquid nitrogen. On the day of assay, tissues are added to labeled tubes containing lysis buffer (volume=10 ml/gram wt. with 1:10 dilution) and kept on ice. […] Optical density of each well at […] was determined within 30 minutes using a Biotek Instruments EL312e microtiter plate reader. Concentrations of TNF-α were calculated from the standard curves.

With Nc1ncnc2c1ncn2[C@@H]1O[C@H](CO)[C@@H](O)[C@H]1O [Adenosine] as the molecule, how does the Half life [1] read?
Its Half life is under 1 s.

What does the source list for CCCCCCC(C(C)O)n1cnc2c(N)ncnc21 (stereo not drawn) [EHNA, erythro-9-(2-hydroxy-3-nonyl)adenine]?
Effect on serum TNF-α response to sepsis at 4 hours (TNF-α [2]; 4 hours): attenuation of this response; Effect on serum TNF-α response to sepsis at 24 hours (TNF-α [2]; 24 hours): attenuation of this response; Activity relative to pentostatin (times less active) (adenosine deaminase [3]): one thousand; Ki (adenosine deaminase [4]): 1 nM; Increase of adenosine release (adenosine deaminase [5]): 15 fold

With OC[C@H]1O[C@@H](n2cnc3c2NC=NC[C@H]3O)C[C@@H]1O [pentostatin, (R)-3-(2-deoxy-beta-D-erythropentofuranosyl)-3,6,7,8-tetrahydro-imidazo[4,5-d]-[1,3] diazepin-8-ol] as the molecule, how does the “Effect on serum TNF-α response to sepsis at 4 hours” value (TNF-α [2]; 4 hours) read?
The value was “attenuation of this response”.

And the “Effect on serum TNF-α response to sepsis at 24 hours” value (TNF-α [2]; 24 hours)?
Its value is “attenuation of this response”.

What about the “Serum TNF-α at 4 hours after sepsis induction” value (TNF-α [2]; treated at time of sepsis induction, 4 hours) of the same molecule?
Its value is 592 ± 62 pg/mL.

What about the “Serum TNF-α at 24 hours after sepsis induction” value (TNF-α [2]; treated at time of sepsis induction, 24 hours) of the same molecule?
The value was 671 ± 175 pg/mL.

What about the “Dose with maximal effect on modulating cytokine concentrations” value (TNF-α, IL-1 beta, IL-10) of the same molecule?
The value was 1 mg/kg.

What about the “Serum concentrations of IL-10” value (IL-10; FIG. 14(A)) of the same molecule?
The value was “unaffected”.

What about the “IL-10 concentrations in the liver and spleen” value (IL-10; FIG. 14(B) and 14(C)) of the same molecule?
The value was “elevated”.

What about the “Circulating sTNFRI (p55)” value (sTNFRI or p55) of the same molecule?
The value was 4624 ± 404 pg/mL.

And the “Circulating sTNFRII (p75)” value (sTNFRII or p75)?
Its value is 16525 ± 1226 pg/mL.

What about the “Blood pressures or heart rates versus saline-treated septic rats” value (septic rats [6]) of the same molecule?
Its value is “neither the groups treated with pentostatin nor the groups treated with 8-SPT were blood pressures or heart rates significantly different”.

And the Capillary leakage (septic rats [7])?
The Capillary leakage was “amelioration of capillary leakage”.

And the Small bowel hemorrhage (septic rats [7])?
Its Small bowel hemorrhage is “little to no evidence of small bowel hemorrhage”.

And the “Volume of fluid in the peritoneal cavity” value (septic rats [7]; untreated 2-3 ml)?
Its value is 0 to 1 mL.

And the “Serum IL-6” value (IL-6)?
Its value is 5525 ± 1435 pg/mL.

And the “Jejunum tissue TBARS during sepsis” value [8]?
The value was “diminution of tissue TBARS”.

What about the “Septic rats surviving to day 3” value (septic rats [9]) of the same molecule?
The value was 4 of the 5 and 4 of 5.

And the “Mortality in SIRS model” value (SIRS rats)?
Its value is “effective in reducing mortality”.

And the “Serum TNF-α” value (TNF-α [10])?
The value was 20.3 ± 14.8 pg/mL.
